{"source": "patent US20200345725A1", "about": "“Methods and Compositions for Treating Cancer” (Omeros Corporation, priority 2019, published 2020)", "format_in_all_cases": "cell-based", "key": {"GPR174 [1]": {"target": "T1, GPR174 (Homo sapiens, UniProt Q9BXC1)", "assay": "GPR174 signaling assays with adenosine receptor inhibitors (data not shown)", "set-up": "host or cells: HEK293 or CHO cell lines (ATCC)", "excerpt": "It should be noted that the A2aR inhibitors tested belong to four distinct chemical classes and that none of them affects GPR174 signaling when tested in signaling assays (data not shown)."}, "purified human T cells": {"test_system": "purified human T cells", "assay": "Suppression of cytokine production from purified human T cells by PS liposomes and NECA (MesoScale Discovery)", "details": "purified human CD3+ T cells, 24 hours, PS liposomes 1 μM, NECA", "method": "Purified human T cells (untouched total T cells, Astarte Biologies, Inc., CD3+ T cells in FIGS. 72A and 72B and CD8+ T cells in FIG. 72C) were stimulated in quadruplicate at 100,000 cells per well in 96-well flat bottom plates and X-vivo 15 media with the following reagents:\nImmunoCult™ Human CD3/CD28 T Cell Activator (StemCell) (1:50 dilution)\nPS liposomes (1 μM) or media control\nAdenosine receptor agonist (NECA, 0.1 μM or 0.05 μM) or media control\nA combination of both reagents.\nAfter 24 hours of culture (44 hours for the results shown in FIG. 72C), culture media was analyzed for cytokines (MesoScale Discovery)."}, "A2bR": {"target": "T2, A2bR (Homo sapiens, UniProt P29275)", "T2 construct": "host or cells: HEK293", "T2 sequence (P29275 1-332)": "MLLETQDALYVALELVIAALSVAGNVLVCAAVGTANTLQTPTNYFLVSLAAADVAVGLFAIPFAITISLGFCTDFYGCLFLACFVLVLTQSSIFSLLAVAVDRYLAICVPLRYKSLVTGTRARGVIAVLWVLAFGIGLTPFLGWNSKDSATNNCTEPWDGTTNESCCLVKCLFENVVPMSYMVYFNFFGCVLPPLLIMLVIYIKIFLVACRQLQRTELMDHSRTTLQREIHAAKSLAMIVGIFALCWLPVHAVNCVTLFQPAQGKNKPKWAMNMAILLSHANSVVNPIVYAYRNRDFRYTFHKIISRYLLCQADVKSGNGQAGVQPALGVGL", "assay": "Cre-luciferase reporter assay, HEK293 cells transfected with A2bR", "details": "overnight incubation; read-out: A2B (IC50 nM)"}, "GPR174 [2]": {"target": "T1, GPR174", "assay": "CRE-Luc reporter Gs signaling assay with GPR174", "set-up": "host or cells: HEK293 or CHO cell lines (ATCC)", "details": "for Human GPR174 CRE Activity: nature of the compound (IA, antagonist, NM): pCRE-Luc reporter"}, "ADBR2 [3]": {"target": "T3, ADBR2 (Homo sapiens, UniProt P07550)", "T3 construct": "host or cells: HEK293 or CHO cell lines (ATCC)", "assay": "GloSensor cAMP assay with ADBR2"}, "GPR174 [4]": {"target": "T1, GPR174", "assay": "Cellular redistribution assay (CRA) for GPR174", "excerpt": "One method for identifying compounds capable of modulating a receptor is using a cellular redistribution assay (“CRA”). Exemplary CRA methods are found in U.S. Pat. No. 7,309,576 issued to O'Dowd et al. and in O'Dowd et al., J. Biomol. Screen. 12:175-85,2007. […] Incorporation of the NLS alters the cellular localization of the GPCR, such that the majority of the NLS-modified receptor is present in the cell interior. An NLS-modified GPCR, when interacting with a functionally active compound, is mostly localized on the cell surface. Thus, it becomes possible to identify receptor modulators without knowledge of the endogenous ligand or a surrogate ligand.\nThe inventors have identified a number of compounds that inhibit GPR174 using a CRA assay similar to that described in U.S. Pat. No. 7,309,576 and in O'Dowd et al., J. Biomol. Screen. 12:175-85, 2007. These compounds are described in detail below.\n(§1) The inventors used a CRA similar to that described in U.S. Pat. No. 7,309,576 and O'Dowd et al., J. Biomol. Screen. 12:175-85, 2007 to identify compounds that are capable of interacting with GPR174 using a library of approximately 370,000 chemical entities. Briefly described, the CRA assay described in U.S. Pat. No. 7,309,576 involves artificially inserting a NLS into the dopamine D1 receptor (DRD1), which allows the receptor to traffic from the cell membrane to the cell interior, and that the binding of antagonists to the receptor retained the receptor at the cell surface, while removal of the ligand allowed the receptor to continue to internalize from the cell surface. Both antagonists and agonists that selectively bound the receptor retained the receptor on the plasma membrane. GPR174 constructs were generated for use in a CRA-based compound screening assay. From this screen, the inventors initially identified compounds of formula I-VI, as described herein and included in Table 1."}, "GPR174 [5]": {"target": "T1, GPR174", "assay": "GloSensor cAMP assay with GPR174, with or without agonist LysoPS", "set-up": "host or cells: HEK293 or CHO cell lines (ATCC)", "method": "In order to confirm that GPR174 interacting compound 4 is an antagonist of GPR174-mediated Gs signaling, a GloSensor assay was carried out with increasing concentrations of compound 4 in the presence or absence of a fixed concentration (1 μM) of the GPR174 agonist LysoPS as follows.\nThe DNA/lipofectamine 2000 mix (3000 μL) was incubated at room temperature for 30 minutes and then added into a 10 cm culture dish (Corning, NY) containing 70-90% confluent cultured cells, typically HEK293 or CHO cell lines (ATCC, VA), in 15 mL of media. […] Media (26 mL) was added to the detached cells and 100 μL of transfected cells were transferred to each well on a 96-well plate. The cells were further incubated at 37° C. overnight. The following day, the media were removed and 100 μl of equilibration media (Promega) was added to each well to the manufacturer's directions. The cells were then incubated at room temperature for 2 hours and the cell plates were pre-read with a SpectraMax L (Molecular Devices, CA). After the pre-read, increasing concentrations of each compound in DMSO (1.0 μl) was added to the cells. The cell plates containing the compound were read immediately after the compound was added and at various times up to 30 minutes after the addition of the compound with a SpectraMax L (Molecular Devices, CA). Data were analyzed with either Excel (Microsoft, WA) or Prism 4.03 (GraphPad, CA)."}, "ADBR2 [6]": {"target": "T3, ADBR2", "assay": "CRE-Luc reporter assay with control receptor ADBR2", "method": "The DNA/lipofectamine 2000 mix (3000 μL) was incubated at room temperature for 30 minutes and then added into a 10 cm culture dish (Corning, NY) containing 70-90% confluent cultured cells, (HEK293 or CHO cell lines (ATCC, VA)), in 15 mL of media. […] The cells were further incubated at 37° C. for various times. The media were removed and the cells lysed.\nCompounds were tested in the reporter system with increasing concentrations of GPR174-interacting compounds.\nThe DNA/lipofectamine 2000 mix (3000 μL) was incubated at room temperature for 30 minutes and then added into a 10 cm culture dish (Corning, NY) containing 70-90% confluent cultured cells, typically HEK293 or CHO cell lines (ATCC, VA), in 15 mL of media. […] Media (26 mL) were added to the detached cells and 120 μL of transfected cells were transferred to each well on a 96-well plate. Increasing concentration of each compound in DMSO (1.2 μl) was added to the cells after plating into the 96-well plate. The cells were further incubated at 37° C. for various times. The media were removed, and the cells lysed.\nADBR2 is a GPCR, like GPR174, that activates the Gs signaling pathway."}, "CHRM1": {"test_system": "CHRM1", "assay": "CRA against CHRM1", "excerpt": "as §1\nThe inventors also sought to validate that the compounds identified using the CRA are modulatory compounds. To this end, the above-described CRA was used to screen a library for compounds that interact with three control non-orphan receptors, and the results of this screen were compared to the results of screening the same library for compound that were identified using a Fluorometric Imaging Plate Reader (FLIPR) assay, a conventional technique commonly used to identify compounds interacting with non-orphan GPCRs signaling through Ca^++. Three non-orphan GPCRs—Muscarinic acetylcholine receptor M1 (CHRM1), Adrenergic receptor alpha 1a (ADRA1a), and Neuropeptide S receptor (NPSR)—were screened against a 10,000-compound GPCR-focused library. Thirty interacting compound “hits” were identified using the CRA, and eighty-one hits were identified using the FLIPR for the CHRM1 receptor; 9 CRA hits and 29 FLIPR hits for the NPS receptor were identified; and 110 CRA hits and 110 FLIPR hits for ADRA1a.\nIn addition, the CRA can also provide the relative potencies of compounds against the target receptor."}, "wild-type GPR174": {"target": "T4, wild-type GPR174 (Homo sapiens, UniProt Q9BXC1)", "T4 construct": "expressed in transfected cells; host or cells: HEK293", "T4 sequence (Q9BXC1 whole entry)": "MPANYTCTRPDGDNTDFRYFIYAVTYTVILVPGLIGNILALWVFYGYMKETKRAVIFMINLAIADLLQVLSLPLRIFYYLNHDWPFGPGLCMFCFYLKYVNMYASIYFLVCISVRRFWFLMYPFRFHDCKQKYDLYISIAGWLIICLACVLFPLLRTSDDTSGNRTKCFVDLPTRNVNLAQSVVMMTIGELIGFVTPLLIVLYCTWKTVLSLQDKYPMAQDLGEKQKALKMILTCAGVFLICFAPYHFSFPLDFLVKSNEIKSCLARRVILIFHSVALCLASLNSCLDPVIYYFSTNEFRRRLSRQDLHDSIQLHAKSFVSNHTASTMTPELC", "assay": "GloSensor Gs signaling by phospholipids, HEK293 cells expressing wild-type GPR174", "details": "10 nM to 10,000 nM", "method": "(§2) Unilamellar liposomes of phosphatidylserine (PS) and other phospholipids were prepared by hydration in PBS and extrusion at 50-54° C. through a 0.1 micron filter using a mini-extruder (Avanti). Lysophosphatidylserine (Lyso-PS) is soluble.\n(§3) HEK293 cells were grown in 6-well plates and transfected using Lipofectamine 2000 (Thermo Fisher Scientific) with 300 ng/well of cAMP biosensor expressing plasmid pGlo22F (Promega) and 2 ng of a plasmid expressing wild-type GPR174 or 2 ng of a plasmid expressing a GPR174 mutant with lowered basal activity, referred to as “GPR174-v38.”\n5-6 hours after transfection, the cells were trypsinized and plated at a density of 5000 cells/well into 96-well plates and incubated overnight. The next day, the culture medium was replaced with 100 μL/well of serum free medium X-vivo15 (Lonza) with 2% GloSensor Assay reagent (Promega). The plates were incubated for 1 hour at room temperature and measured in a luminometer to obtain the pre-compound values. […] The plates were measured in a luminometer to obtain the post-compound addition measurement. The ratio of post-compound addition to pre-compound addition measurements (i.e., the extent of Glosensor signal induction by an agonist) was determined. […]"}, "GPR174-v38": {"target": "GPR174-v38 (Homo sapiens, UniProt Q9BXC1)", "assay": "GloSensor Gs signaling by phospholipids, HEK293 cells expressing mutant GPR174-v38", "details": "10 nM to 10,000 nM", "method": "as §2, §3\n5-6 hours after transfection, the cells were trypsinized and plated at a density of 5000 cells/well into 96-well plates and incubated overnight. The next day, the culture medium was replaced with 100 μL/well of serum free medium X-vivo15 (Lonza) with 2% GloSensor Assay reagent (Promega). The plates were incubated for 1 hour at room temperature and measured in a luminometer to obtain the pre-compound values. […] The plates were measured in a luminometer to obtain the post-compound addition measurement. The ratio of post-compound addition to pre-compound addition measurements (i.e., the extent of Glosensor signal induction by an agonist) was determined."}}}
{"compound": "CCCn1c(=O)c2[nH]c(-c3ccc(OCC(=O)Nc4ccc(C#N)cc4)cc3)nc2n(CCC)c1=O", "note": "[MRS-1754]", "values": [{"measurement": "effect on GPR174 signaling", "setting": "GPR174 [1]", "result": "did not affect GPR174 signaling"}]}
{"compound": "CCNC(=O)[C@H]1O[C@@H](n2cnc3c(N)ncnc32)[C@H](O)[C@@H]1O", "note": "[NECA]", "values": [{"measurement": "IL-2 FC vs Media", "setting": "purified human T cells; FIG. 72A", "result": 0.42, "unit": "fold change"}, {"measurement": "IFN-γ FC vs Media", "setting": "purified human T cells; FIG. 72B", "result": 0.31, "unit": "fold change"}]}
{"compound": "Nc1nc(-n2cccn2)nc(-n2cccn2)c1Br", "note": "[PBF-509]", "values": [{"measurement": "IC50", "setting": "A2bR", "result": 680, "unit": "nM"}]}
{"compound": "CCCC(=O)c1ccc(N2CCN(S(=O)(=O)c3ccc(C)cc3)CC2)c(F)c1", "note": "[compound 4]", "values": [{"measurement": "Gs pathway in the presence of GPR174 (CRE-Luc reporter)", "setting": "GPR174 [2]; increasing concentrations of compound", "result": "did not modulate"}, {"measurement": "Human GPR174 CRE Activity: nature of the compound (IA, antagonist, NM)", "setting": "GPR174 [2]", "result": "GPR174 antagonist"}, {"measurement": "Human GPR174 CRE Activity: nature of the compound (IA, antagonist, NM)", "setting": "GPR174 [2]; listed as Compound 4", "result": "GPR174 antagonist"}, {"measurement": "Gs signaling in the presence of ADBR (GloSensor, FIG. 21B)", "setting": "ADBR2 [3]", "result": "neither compound 4 nor LysoPS modulate Gs signaling"}, {"measurement": "dose-response curve against GPR174 in the CRA (FIG. 5A)", "setting": "GPR174 [4]", "result": "show a dose-response curve"}, {"measurement": "competition with the GPR174 agonist LysoPS (GloSensor, FIG. 21A)", "setting": "GPR174 [5]; LysoPS fixed at 1 μM", "result": "does compete"}, {"measurement": "Gs pathway in the presence of GPR174 (GloSensor, FIG. 21A)", "setting": "GPR174 [5]; compound alone", "result": "does not modulate"}, {"measurement": "Gs pathway in the presence of ADBR2 (CRE-Luc reporter)", "setting": "ADBR2 [6]", "result": "did not modulate"}, {"measurement": "activity against CHRM1 in the CRA (FIG. 5B)", "setting": "CHRM1", "result": "do not show any activity"}]}
{"compound": "lysophosphatidylserine [LysoPS]", "values": [{"measurement": "Gs signaling in the presence of ADBR (GloSensor, FIG. 21B)", "setting": "ADBR2 [3]", "result": "neither compound 4 nor LysoPS modulate Gs signaling"}, {"measurement": "GPR174 Gs signaling, wild-type GPR174 (FIG. 45A)", "setting": "wild-type GPR174", "result": "stimulate GPR174 Gs signaling in a concentration-dependent manner"}, {"measurement": "GPR174 Gs signaling, mutant GPR174-v38 (FIG. 45B)", "setting": "GPR174-v38", "result": "stimulate GPR174 Gs signaling in a concentration-dependent manner"}]}
